Measurements published in the supplement of paper PMC8960247.
Structures can show the parent of a compound that is named as a salt. ± gives the standard error.

What follows are molecules tested on 621-102 (TSC2-deficient) (assay: relative viability vs DMSO; higher = less cytotoxic). Conditions: 1 µM; serum: 10% FBS; 72 h.
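Also: immortalized renal angiomyolipoma cells stably carrying empty vector or TSC2, dosed in 384-well plates in DMEM, viability normalized to vehicle-treated wells within each plate.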

**Q.** Which relative viability does the source give for `Nc1cc(C(F)(F)F)c(-c2cc(N3CCOCC3)nc(N3CCOCC3)n2)cn1` [BKM120 (NVP-BKM120)] here?
**A.** 71.9 ± 3.6%

**Q.** `COc1ccccc1N1CCN(CCN2C(=O)CC3(CCCC3)CC2=O)CC1` [BMY 7378] was tested. Which relative viability did it give?
**A.** 105 ± 0.26%

**Q.** With `CC(C)c1cnn2c(NCc3ccccc3)cc(NCCCCCCN)nc12` [BS-181] as the molecule, how does the relative viability read?
**A.** 116 ± 2.2%

**Q.** With `NC(=O)c1ccc(I)c([N+](=O)[O-])c1` [BSI-201] as the molecule, how does the relative viability read?
**A.** 113.7 ± 0.28%

**Q.** How did the relative viability turn out when `O=C(O)[C@H]1O[C@@H](Oc2cc3oc(-c4ccccc4)cc(=O)c3c(O)c2O)[C@H](O)[C@@H](O)[C@@H]1O` [Baicalin] was run?
**A.** 110 ± 1.3%

**Q.** For `CCOC(=O)[C@H](CCc1ccccc1)N[C@H]1CCc2ccccc2N(CC(=O)O)C1=O` [Benazepril HCl], which relative viability is on record?
**A.** 74.6 ± 9.9%

**Q.** `NC(CO)C(=O)NNCc1ccc(O)c(O)c1O` (configuration not stated) [Benserazide HCl] was tested. Which relative viability did it give?
**A.** 106 ± 2.3%

**Q.** For `CC(C[N+](C)(C)C)OC(N)=O` (configuration not stated) [Bethanechol chloride], which relative viability is on record?
**A.** 100 ± 1.8%

**Q.** For `CC(O)(CS(=O)(=O)c1ccc(F)cc1)C(=O)Nc1ccc(C#N)c(C(F)(F)F)c1` (configuration not stated) [Bicalutamide (Casodex)], which relative viability is on record?
**A.** 110.6 ± 0.79%

**Q.** How did the relative viability turn out when `COc1cc(Nc2c(C#N)cnc3cc(OCCCN4CCN(C)CC4)c(OC)cc23)c(Cl)cc1Cl` [Bosutinib (SKI-606)] was run?
**A.** 64.3 ± 7.2%

**Q.** For `CCCCN1CCCCC1C(=O)Nc1c(C)cccc1C` (configuration not stated) [Bupivacaine HCl (marcain)], which relative viability is on record?
**A.** 94.1 ± 1.3%

**Q.** Which relative viability does the source give for `CC[C@H](Nc1ncnc2[nH]cnc12)c1nc2cccc(F)c2c(=O)n1-c1ccccc1` [CAL-101] here?
**A.** 104.1 ± 0.72%

**Q.** How did the relative viability turn out when `O=C(O)c1ccc2c(c1)nc(Nc1cccc(Cl)c1)c1ccncc12` [CX-4945] was run?
**A.** 101 ± 2.9%

**Q.** Which relative viability does the source give for `Cc1nc(N)sc1-c1ccnc(Nc2ccc(N3CCOCC3)cc2)n1` [CYC116] here?
**A.** 93.08 ± 0.77%

Same assay, conditions: 10 µM; serum: 10% FBS; 72 h

**Q.** `CCN1CCN(C(=O)Cc2ccc(Nc3ncc(F)c(Nc4ccc(C(=O)Nc5ccccc5Cl)cc4)n3)cc2)CC1` [Aurora A Inhibitor I] was tested. Which relative viability did it give?
**A.** 0.786 ± 0.16%

**Q.** For `CC(C)c1cc(C(C)C)c(CC(=O)NS(=O)(=O)Oc2c(C(C)C)cccc2C(C)C)c(C(C)C)c1` [Avasimibe (CI-1011)], which relative viability is on record?
**A.** 106 ± 3.6%

**Q.** For `CNC(=O)c1ccccc1Sc1ccc2c(/C=C/c3ccccn3)n[nH]c2c1` [Axitinib], which relative viability is on record?
**A.** 55 ± 0.8%

**Q.** For `CN1CCCC(n2nc(Cc3ccc(Cl)cc3)c3ccccc3c2=O)CC1` (configuration not stated) [Azelastine HCl (Astelin)], which relative viability is on record?
**A.** 90.43 ± 0.82%

**Q.** How did the relative viability turn out when `CNC(=O)c1cc(Oc2ccc(NC(=O)Nc3ccc(Cl)c(C(F)(F)F)c3)c(F)c2)ccn1` [BAY 73-4506 (Regorafenib)] was run?
**A.** 88.2 ± 1.8%

**Q.** How did the relative viability turn out when `CC[C@@H]1C(=O)N(C)c2cnc(Nc3ccc(C(=O)N[C@H]4CC[C@H](N5CCN(CC6CC6)CC5)CC4)cc3OC)nc2N1C(C)C` [BI6727 (Volasertib)] was run?
**A.** 1.64 ± 0.065%

**Q.** With `CC[C@@H]1C(=O)N(C)c2cnc(Nc3ccc(C(=O)NC4CCN(C)CC4)cc3OC)nc2N1C1CCCC1` [BI 2536] as the molecule, how does the relative viability read?
**A.** 29 ± 0.68%

**Q.** `COC(=O)c1ccc2c(C(=Nc3ccc(N(C)C(=O)CN4CCN(C)CC4)cc3)c3ccccc3)c(O)[nH]c2c1` [BIBF1120 (Vargatef)] was tested. Which relative viability did it give?
**A.** 95.8 ± 1.2%

**Q.** For `C/C(=C\C(=O)Nc1ccccc1C(=O)O)c1ccc2ccccc2c1` [BIBR1532], which relative viability is on record?
**A.** 87.4 ± 2.7%

**Q.** `Cn1c(CNc2ccc(C(=N)N)cc2)nc2cc(C(=O)N(CCC(=O)O)c3ccccn3)ccc21` [BIBR 953] was tested. Which relative viability did it give?
**A.** 81 ± 4.6%

**Q.** How did the relative viability turn out when `CCCCCCOC(=O)NC(=N)c1ccc(NCc2nc3cc(C(=O)N(CCC(=O)OCC)c4ccccn4)ccc3n2C)cc1` [BIBR-1048] was run?
**A.** 87.6 ± 3%

**Q.** How did the relative viability turn out when `CN(C)C/C=C/C(=O)Nc1cc2c(Nc3ccc(F)c(Cl)c3)ncnc2cc1O[C@H]1CCOC1` [BIBW2992 )Tovok)] was run?
**A.** 13.8 ± 1.6%

**Q.** How did the relative viability turn out when `COc1c(C)cnc(Cn2cnc3c(Cl)nc(N)nc32)c1C` [BIIB021] was run?
**A.** 21.1 ± 0.83%

**Q.** `Cc1ccc(-n2nc(C(C)(C)C)cc2NC(=O)Nc2ccc(OCCN3CCOCC3)c3ccccc23)cc1` [BIRB 796] was tested. Which relative viability did it give?
**A.** 104 ± 1.4%

**Q.** With `Nc1cc(C(F)(F)F)c(-c2cc(N3CCOCC3)nc(N3CCOCC3)n2)cn1` [BKM120 (NVP-BKM120)] as the molecule, how does the relative viability read?
**A.** 20.01 ± 0.19%

**Q.** `COc1ccccc1N1CCN(CCN2C(=O)CC3(CCCC3)CC2=O)CC1` [BMY 7378] was tested. Which relative viability did it give?
**A.** 95.3 ± 2.3%

**Q.** How did the relative viability turn out when `CC(C)c1cnn2c(NCc3ccccc3)cc(NCCCCCCN)nc12` [BS-181] was run?
**A.** 81.2 ± 7.1%

**Q.** With `NC(=O)c1ccc(I)c([N+](=O)[O-])c1` [BSI-201] as the molecule, how does the relative viability read?
**A.** 110 ± 3.1%

**Q.** How did the relative viability turn out when `O=C(O)[C@H]1O[C@@H](Oc2cc3oc(-c4ccccc4)cc(=O)c3c(O)c2O)[C@H](O)[C@@H](O)[C@@H]1O` [Baicalin] was run?
**A.** 98.5 ± 1.3%

**Q.** `CCOC(=O)[C@H](CCc1ccccc1)N[C@H]1CCc2ccccc2N(CC(=O)O)C1=O` [Benazepril HCl] was tested. Which relative viability did it give?
**A.** 69.8 ± 4.9%

**Q.** With `NC(CO)C(=O)NNCc1ccc(O)c(O)c1O` (configuration not stated) [Benserazide HCl] as the molecule, how does the relative viability read?
**A.** 101 ± 1.4%

**Q.** With `CC(C[N+](C)(C)C)OC(N)=O` (configuration not stated) [Bethanechol chloride] as the molecule, how does the relative viability read?
**A.** 101 ± 3%

**Q.** For `CC(O)(CS(=O)(=O)c1ccc(F)cc1)C(=O)Nc1ccc(C#N)c(C(F)(F)F)c1` (configuration not stated) [Bicalutamide (Casodex)], which relative viability is on record?
**A.** 112 ± 1.8%

**Q.** With `COc1cc(Nc2c(C#N)cnc3cc(OCCCN4CCN(C)CC4)c(OC)cc23)c(Cl)cc1Cl` [Bosutinib (SKI-606)] as the molecule, how does the relative viability read?
**A.** 3.18 ± 0.88%

**Q.** For `CCCCN1CCCCC1C(=O)Nc1c(C)cccc1C` (configuration not stated) [Bupivacaine HCl (marcain)], which relative viability is on record?
**A.** 100 ± 2.3%

**Q.** Which relative viability does the source give for `CC[C@H](Nc1ncnc2[nH]cnc12)c1nc2cccc(F)c2c(=O)n1-c1ccccc1` [CAL-101] here?
**A.** 92.41 ± 0.24%

**Q.** `O=C(O)c1ccc2c(c1)nc(Nc1cccc(Cl)c1)c1ccncc12` [CX-4945] was tested. Which relative viability did it give?
**A.** 80.4 ± 0.94%

**Q.** For `Cc1nc(N)sc1-c1ccnc(Nc2ccc(N3CCOCC3)cc2)n1` [CYC116], which relative viability is on record?
**A.** 50.55 ± 0.13%
